Measured values taken from patent US9034859B2, “Sulfated oxysterol and oxysterol sulfation by hydroxysterol sulfotransferase promote lipid homeostasis and liver proliferation” (Virginia Commonwealth University, priority 2011, dated 2015).
Where “and” joins values, the source holds several entries; their conditions need not be identical. Equal values may be shown once.

How the values were obtained:
[1] = HPLC analysis of 25HC3S and 25HC levels in liver tissues; assay type: in vivo, C57BL/6J female mice; details: HFD mice, acute treatment
[2] = tested on: apoptotic and cell cycle related genes; assay: Mouse Cell cycle RT2 Profiler PCR Array of liver tissues; assay type: in vivo, C57BL/6 mice; details: 5 mg/kg, versus vehicle
Procedure: The real-time PCR array was performed using the Mouse Cell cycle RT2 Profiler™ PCR Array consisting of 84 key genes involved in apoptosis and proliferation as the manufacturer's instruction (SABiosciences, Frederick, Md.). Total mRNA was reverse-transcribed to cDNA as described above. Three of biologically-distinct specimens were pooled to reduce variance. The cDNA was then amplified precisely like real-time PCR in the primers-preloaded PCR plates on the ABI 7500 Fast Real-Time PCR System. ΔΔCT values between different stimulated samples were analyzed as the manufacturer's instruction, which output p-values for fold-regulation change.

[3] = Pharmacokinetics and tissue biodistribution of radioactivity after i.v. injection; assay type: in vivo, C57BL/6 mice
Procedure: In a separate set of experiments, mice received an i.v. injection of [^3H]-25HC3S (1×10^6 cpm/mouse) and 25HC3S (5 mg/kg). At 4, 24, 48, and 96 h after the injection, mice were sacrificed, tissues (brain, heart, lung, liver, kidney, spleen, stomach, small intestine, skeletal muscle, and colon) were rapidly dissected and weighed, and the radioactivity was measured using a liquid scintillation counter with automatic decay correction (Beckman Counter, Atlanta, Ga.). Tissue values were calculated as a percentage of injected counts per gram of tissue (% IC/g). For pharmacokinetics, blood samples (30 μl) were collected at selected times after injection from 0 to 96 h via tail clip. Counts of radioactivity were expressed as IC/ml of blood.

[4] = Long-term treatment of HFD-fed mice: body mass, liver weight, plasma lipids, liver function; assay type: in vivo, C57BL/6J female mice
Procedure: Animal studies were approved by Institutional Animal Care and Use Committee of McGuire Veterans Affairs Medical Center and were conducted in accordance with the Declaration of Helsinki, the Guide for the Care and Use of Laboratory Animals, and all applicable regulations. To examine the effect of 25HC3S on diet-induced lipid accumulation in sera and liver, 8-week-old female C57BL/6J mice (Charles River, Wilmington, Mass.) were randomly assigned to three groups: the first control group was fed a chow diet; the high fat diet (HFD) group was fed a HFD (Harlan Teklad, Madison, Wis.) containing 42% kcal from fat, 43% kcal from carbohydrate, 15% kcal from protein and 0.2% cholesterol; and the high cholesterol diet (HCD) group was fed a 2% cholesterol diet with 18% kcal from fat, 58% kcal from carbohydrate and 24% kcal from protein for 10 weeks, respectively. All mice were housed under identical conditions in an aseptic facility and given free access to water and food. At the end of each period, the mice were intraperitoneally injected with vehicle solution (ethanol/PBS; Vehicle), 25HC (25 mg/kg), or 25HC3S (25 mg/kg) for 2 times and fasted over night for acute treatment (n=15-17 for each group) or once every three days for 6 weeks (n=16 for each group) and fasted 5 hrs for long-term treatment; and blood samples were collected. Serum triglyceride, total cholesterol, high density lipoprotein-cholesterol, glucose, alkaline phosphatase (ALK), alanine aminotransferase (ALT), and aspartate aminotransferase (AST) were measured using standard enzymatic techniques in the clinical laboratory at McGuire Veterans Affairs Medical Center. Lipoprotein profiles in sera were analyzed by HPLC as following described.

[5] = tested on: genes related to cell cycle progression; assay: RTqPCR of cell cycle-related genes in mouse liver after 25HC3S (Example 3); assay type: in vivo, C57BL/6 mice; details: doses lower than 5 mg/kg, 48 h, dose-dependent
Procedure: PCR assays were performed in 96-well optical reaction plates using the ABI 7500 Fast Real-Time PCR System (Applied Biosystems, Foster City, Calif.). PCR assays were conducted in triplicate wells for each sample. Baseline values of amplification plots were set automatically and threshold values were kept constant to obtain normalized cycle times and linear regression data. The following reaction mixture per well was used: 2×SYBR Green PCR Master Mix (10 ul), primer at the final concentration of 10 uM (1 ul), RNAse-free water (4 ul), cDNA (5 ul, 10 ng). For all experiments the following PCR conditions were used: denaturation at 95° C. for 10 minutes, followed by 40 cycles at 95° C. for 15 seconds, then at 60° C. for 60 seconds. Quantitative normalization of cDNA in each sample was performed using 18S gene as an internal control. Relative quantification was performed using the ΔΔCT method. Suitable primers were used for RtqPCR.

[6] = i.v. [3H]-25HC3S and 25HC3S 5 mg/kg

Structure (SMILES): C[C@H](CCCC(C)(C)O)[C@H]1CC[C@H]2[C@@H]3CC=C4C[C@@H](O)CC[C@]4(C)[C@H]3CC[C@]12C [25HC, 25-hydroxycholesterol]
- level of the administered compound in liver [1]: significantly increased

Structure (SMILES): CC(CCCC(C)(C)O)C1CCC2C3CC=C4CC(OS(=O)(=O)O)CCC4(C)C3CCC12C (centres unmarked) [25HC3S, 25-hydroxycholesterol-3-sulfate]
- decrease of Apaf1 expression ([2]; 48 h): 3 fold
- decrease of Chek2 expression ([2]; 48 h): 4.5 fold
- Fold change Apaf1(NM_009684) ([2]; 2 days, pooled mRNA): −3.21 fold
- Fold change Atr(NM_019864) ([2]; 2 days, pooled mRNA): −2.15 fold
- Fold change Bag1(NM_009736) ([2]; 2 days, pooled mRNA): 2.0488 fold
- Fold change Bnip3(NM_009760) ([2]; 2 days, pooled mRNA): 2.0112 fold
- Fold change Brca1(NM_009764) ([2]; 2 days, pooled mRNA): −1.87 fold
- Fold change Ccnb2(NM_007630) Cyclin B2 ([2]; 2 days, pooled mRNA): 1.90 fold
- Fold change Ccne2(NM_009830) Cyclin E2 ([2]; 2 days, pooled mRNA): 2.52 fold
- Fold change Cdc25a(NM_007658) ([2]; 2 days, pooled mRNA): 1.53 fold
- Fold change Cdc25c(NM_009860) ([2]; 2 days, pooled mRNA): 1.56 fold
- Fold change Cdkn1a(NM_007669) ([2]; 2 days, pooled mRNA): 3.0411 fold
- Fold change Chek2(NM_016681) ([2]; 2 days, pooled mRNA): −4.65 fold
- Fold change E2f3(NM_010093) ([2]; 2 days, pooled mRNA): 2.0193 fold
- Fold change Ep300(NM_177821) ([2]; 2 days, pooled mRNA): 1.8114 fold
- Fold change Esr1(NM_007956) ([2]; 2 days, pooled mRNA): 2.2535 fold
- Fold change Gadd45a(NM_007836) ([2]; 2 days, pooled mRNA): −1.59 fold
- Fold change Hif1a(NM_031168) ([2]; 2 days, pooled mRNA): 1.7576 fold
- Fold change Mdm2(NM_010786) ([2]; 2 days, pooled mRNA): 1.6222 fold
- Fold change Myod1(NM_010866) ([2]; 2 days, pooled mRNA): 1.56 fold
- Fold change Nf1(NM_010897) ([2]; 2 days, pooled mRNA): 2.10 fold
- Fold change Pcna(NM_011045) ([2]; 2 days, pooled mRNA): 3.7 fold and 3.77 fold
- Fold change Prkca(NM_011101) ([2]; 2 days, pooled mRNA): 2.29 fold
- Fold change Tnf(NM_013693) ([2]; 2 days, pooled mRNA): −2.76 fold
- Fold change Tnfrsf10b(NM_020275) ([2]; 2 days, pooled mRNA): −2.28 fold
- Fold change Trp73(NM_011642) ([2]; 2 days, pooled mRNA): 2.5194 fold
- Fold change Wt1(NM_144783) ([2]; 2 days, pooled mRNA): 3.9 fold and 3.90 fold
- Fold change Xrcc5(NM_009533) ([2]; 2 days, pooled mRNA): −1.90 fold
- maximum level of 3H-radioactivity in blood ([3]; i.v. [3H]-25HC3S (1×10^6 cpm/mouse) and 25HC3S 5 mg/kg): 7 % IC/g
- time at which blood 3H-radioactivity decreased to the half level [3, 6]: 48 h
- time of maximum 3H-radioactivity in blood [3, 6]: 1 h
- clearance ([3]; i.v., blood radioactivity): slow clearance
- time of highest uptake of 3H-radioactivity in most organs ([3]; i.v., measured at 4, 24, 48 and 96 h): 4 h
- liver weight ([4]; 6 weeks injection, fasted 5 hrs): significantly decreased
- body mass ([4]; i.p. once every three days, 6 weeks, control kept increasing): stopped increasing body mass
- serum ALK, ALT and AST levels ([4]; long-term treatment): significantly reduced
- plasma triglyceride level ([4]; long-term treatment (data not shown)): did not significantly decrease
- plasma cholesterol level ([4]; long-term treatment, compared to vehicle (data not shown)): significantly decreased
- level of the administered compound in liver [1]: significantly increased
- hepatic mRNA of cMyc, cyclin A, FoxM1b, CDC25b [5]: significant up-regulation
